{"source": "PubChem BioAssay AID1996"}
{"conditions": "buffer; pH 7.4; 200.0 µM", "units": {"solubility kinetic": "µg/mL"}}
{"smiles": "NC(=O)C1CCCN(S(=O)(=O)c2ccc3ccccc3c2)C1", "note": "(stereo not given)", "solubility kinetic": 13.1}
{"smiles": "CCCCn1c(=O)c(C(=O)Nc2ccccc2C)c(O)c2ccccc21", "solubility kinetic": "< 0.4"}
{"smiles": "O=C(O)c1ccc2c(c1)C(=O)N(Cc1ccco1)C2=O", "solubility kinetic": "> 40.7"}
{"smiles": "O=C(O)c1ccc(Cl)c(NCc2ccncc2)c1", "solubility kinetic": "> 39.4"}
{"smiles": "CCc1ccc(C(=O)Nc2nc3ccccc3[nH]2)cc1", "solubility kinetic": 0.5}
{"smiles": "COc1ccc(NC(=O)CNC(=O)c2ccco2)cc1", "solubility kinetic": 40.5}
{"smiles": "COc1ccccc1CNC(=S)NC1CCCCC1", "solubility kinetic": "> 41.8"}
{"smiles": "Cc1cc(NC(=O)CSCc2ccc([N+](=O)[O-])cc2)no1", "solubility kinetic": 24.6}
{"smiles": "CC(=O)NC1(NC(C)=O)CCN(C)CC1", "solubility kinetic": "> 32"}
{"smiles": "CSC1=NCCN1C(=O)Cc1ccc(-c2ccccc2)cc1", "solubility kinetic": 4.1}
{"smiles": "O=C1CN(C(=O)COC(=O)c2ccccc2O)c2ccccc2N1", "solubility kinetic": 3.5}
{"smiles": "O/N=C(\\c1ccccc1)C(O)c1ccccc1", "note": "(stereo not given)", "solubility kinetic": "> 34.1"}
{"smiles": "CC(=O)Nc1ccc(C(=O)OCC(=O)Nc2ccc(N3CCOCC3)cc2)cc1", "solubility kinetic": 7}
{"smiles": "Fc1ccc(C2CCCN2Cc2nc(CC3CC3)no2)cc1", "note": "(stereo not given)", "solubility kinetic": 28.6}
{"smiles": "O=C(CC1CCCC1)Nc1ccc(Cl)c(S(=O)(=O)N2CCOCC2)c1", "solubility kinetic": 54.7}
{"smiles": "CCCn1cnc2cc(NCc3cccs3)ccc21", "solubility kinetic": "> 40.7"}
{"smiles": "CC(NCc1ccc(F)cc1)C(=O)NC1CCCCC1.O=C(O)C(=O)O", "note": "(stereo not given)", "solubility kinetic": "> 55.3"}
{"smiles": "O=C(Cc1c(F)cccc1Cl)Nc1cc(S(=O)(=O)N2CCOCC2)ccc1N1CCCC1", "solubility kinetic": 2}
{"smiles": "c1ccc2[nH]c(SN3CCOCC3)nc2c1", "solubility kinetic": 10.8}
{"smiles": "Cc1cc([N+](=O)[O-])ccc1NC(=O)CCC(=O)N1CCCCCC1", "solubility kinetic": "> 50"}
{"smiles": "CCOC(=O)N1CCN(C(=O)CNC(=O)c2ccccc2F)CC1", "solubility kinetic": "> 50.6"}
{"smiles": "S=C(NCC1CCCO1)NC12CC3CC(CC(C3)C1)C2", "note": "(stereo not given)", "solubility kinetic": 4}
{"smiles": "CN1C(=O)C(C)(C)N(C(=O)c2cccc([N+](=O)[O-])c2)c2ccccc21", "solubility kinetic": 29.5}
{"smiles": "CC(=O)NC(C(=O)N1CCC(c2nc3ccccc3s2)CC1)C(C)C", "note": "(stereo not given)", "solubility kinetic": 51.1}
{"smiles": "Cc1onc(-c2ccccc2)c1C(=O)N1CCCC1", "solubility kinetic": "> 38.4"}
{"smiles": "CC(=O)c1c(C)[nH]c(-c2ccccc2)nc1=S", "solubility kinetic": 33.2}
{"smiles": "Cc1cc(C(=O)NC2=NCCS2)c2ccccc2n1", "solubility kinetic": "> 40.7"}
{"smiles": "S=C(NCC1CCCO1)c1ccc(Br)cc1", "note": "(stereo not given)", "solubility kinetic": 39}
{"smiles": "Cc1cccc(N2C(=O)NC(=O)/C(=C\\C=C\\c3ccco3)C2=O)c1", "solubility kinetic": 39.2}
{"smiles": "C=C(C)CN(CC)C(=O)CN1C(=O)NC2(CCCc3ccccc32)C1=O", "note": "(stereo not given)", "solubility kinetic": "> 53.3"}
{"smiles": "CCN1CCN(c2ncnc3scc(-c4ccc(C)cc4)c23)CC1", "solubility kinetic": "> 50.8"}
{"smiles": "COc1ccc(C(=O)NC(=S)N2CCCC2)cc1", "solubility kinetic": "> 39.7"}
{"smiles": "O=C(Nc1ccccc1)c1cc(S(=O)(=O)Nc2cccnc2)ccc1Cl", "solubility kinetic": "> 58.2"}
{"smiles": "CCCC(=O)OCC(=O)Nc1ccc2c(c1)OCO2", "solubility kinetic": 37.2}
{"smiles": "CCCN1CCC[C@H](c2cccc(O)c2)C1.Cl", "solubility kinetic": "> 38.4"}
{"smiles": "CC(=O)Nc1cccc(NC(=O)C2CC(=O)N(CCc3ccc(F)cc3)C2)c1", "note": "(stereo not given)", "solubility kinetic": 38.4}
{"smiles": "CCOc1ccc(Nc2nc3ccccc3n2C)cc1", "solubility kinetic": "> 40.1"}
{"smiles": "COc1ccc(C(=O)Nc2ccccc2N2CCCC2)cc1", "solubility kinetic": 25.6}
{"smiles": "CC(=O)c1cccc(NC(=S)NCc2ccco2)c1", "solubility kinetic": 33.7}
{"smiles": "O=Cc1cccn1-c1ncc(Br)cn1", "solubility kinetic": 30.6}
{"smiles": "O=[N+]([O-])c1ccccc1S(=O)(=O)Nc1cccnc1", "solubility kinetic": "> 41.9"}
{"smiles": "O=C(/C=C/c1ccc(F)cc1)c1ccc(N2CCOCC2)cc1", "solubility kinetic": 2.3}
{"smiles": "CCOC(=O)/C=c1\\s/c(=C(\\C#N)C(N)=O)n(-c2ccccc2)c1=O", "solubility kinetic": 8.4}
{"smiles": "COc1ccc(OC(=O)/C=C/c2ccc([N+](=O)[O-])cc2)cc1", "solubility kinetic": "< 0.6"}
{"smiles": "COc1cc(NC(=S)N(C)C)c(OC)cc1Cl", "solubility kinetic": "> 41.2"}
{"smiles": "CC(=O)c1cc(CN2CCN(CCC(C)C)C(CCO)C2)cs1", "note": "(stereo not given)", "solubility kinetic": "> 50.8"}
{"smiles": "Cc1ccc(C)c(OCCC(=O)OCC(=O)NCc2ccc(F)cc2)c1", "solubility kinetic": 3.7}
{"smiles": "O=C(O)c1ccc2c(=O)[nH]c(CCl)nc2c1", "solubility kinetic": "> 35.8"}
{"smiles": "Cc1onc(-c2ccccc2)c1C(=O)N(Cc1ccccc1)C(C)C", "solubility kinetic": "> 50.2"}
{"smiles": "CC1(NC(=O)Nc2cccc(Br)c2)CCS(=O)(=O)C1", "note": "(stereo not given)", "solubility kinetic": "> 52.1"}
{"smiles": "Cc1ccc(C(=O)NCC(=O)N2CCc3ccccc3C2)cc1C", "solubility kinetic": "> 48.4"}
{"smiles": "OC(c1ccc(F)cc1)C(CN1CCOCC1)c1ccccc1", "note": "(stereo not given)", "solubility kinetic": "> 47.3"}
{"smiles": "COC(=O)C1=C(Nc2cc(Cl)cc(Cl)c2)CSC1", "solubility kinetic": "< 0.7"}
{"smiles": "Cc1cc(C(=O)NCc2nc(-c3ccccc3)no2)ccc1[N+](=O)[O-]", "solubility kinetic": 18.9}
{"smiles": "CC(=O)Nc1ccc(CN2CCN(C3CCCC3)C(CCO)C2)cc1", "note": "(stereo not given)", "solubility kinetic": "> 51.8"}
{"smiles": "O=C(CNC(=O)c1ccc(Br)cc1)NCc1cccnc1", "solubility kinetic": 49.3}
{"smiles": "CN1C(=O)/C(=C\\c2ccc(N(C)C)cc2)OC1=S", "solubility kinetic": "< 0.3"}
{"smiles": "CSc1cccc(NS(=O)(=O)c2cn(C)cn2)c1", "solubility kinetic": 14.2}
{"smiles": "Cc1ccc(OCC(=O)N(C)C2CCCCC2)c([N+](=O)[O-])n1", "solubility kinetic": "> 46.1"}
{"smiles": "Cc1cc(C)c(NC(=O)CC(=O)c2ccccc2)c(Cl)c1", "solubility kinetic": 3.5}
